{"source": "patent US20240279603A1", "about": "“METHODS OF PROCESSING ADULT NEURAL CELLS FROM MAMMALS AND ASSAYS THEREOF” (THE TEXAS A&M UNIVERSITY SYSTEM, priority 2021, published 2024)", "test_system": "primary cortical neurons", "assay": "Analysis of neurite outgrowth and survival of cultured adult cortical neurons (TUBB3/DAPI high-content imaging)", "format": "cell-based, mouse", "details": "for average neurite length vs Vehicle / number of valid neurons vs Vehicle / total neurite outgrowth vs Vehicle: 150 nM 7-epi Paclitaxel; for average neurite length vs Vehicle / number of valid neurons vs Vehicle / total neurite outgrowth vs Vehicle / overall screening result: 3DIV; for overall screening result: 7-epi Paclitaxel", "procedure": "The instant example provides an exemplary protocol, method, and application of processing and screening using adult cortical neurons obtained from adult mice. In particular, the instant example used young adult and middle-aged male and female wild-type C57Bl/6 mice in which the young adult group comprised mice of 4-9 weeks of age and the middle-age group comprised mice of 40-48 weeks of age.\nApproximately 20 μL of 50 μg/mL Poly-D-Lysine (PDL, Sigma Aldrich, A-003-M) was added onto the wells of 384-well glass bottom (Brooks Life Sciences, MGB101-1-2-LG-L) or plastic bottom (Greiner-Bio, 781091) plates and incubated inside a 5% CO2 incubator at 37° C. for 48 hours. After incubation, the wells of the plates were washed 5 times with H2O and set to dry overnight at room temperature and were used within 24 hours after drying.\nMice were euthanized and their brains were extracted and placed in cold Hank's balanced salt solution (HBSS) followed by microdissection of the cortex. Up to 1.25 grams of cortical tissue were placed in gentleMACS™ C tubes (Miltenyi Biotec, #130-093-237), where each tube contained 5 mL of 0.3 mg/mL papain (Worthington, LS003126) diluted in HBSS.\nThe gentleMACS™ C tubes were placed on the gentleMACS™ Octo Dissociator with heaters (Miltenyi Biotec, #130-096-427) with heating cuffs attached and underwent the gentleMACS Program 37C_ABDK_01 protocol. After protocol completion, the contents of the gentleMACS™ C Tube were strained through a 70 μm cell strainer (Miltenyi Biotec, #130-110-916) placed on top of a 15 mL conical centrifuge tube. Then, 7 mL of cold Dulbecco's Phosphate-Buffered Saline with glucose and pyruvate (DPBS, Thermo Fisher Scientific, 14287072) was added into each of the 15 mL conical centrifuge tubes on top of the strained cells. The 15 mL tubes were centrifuged at 300×g for 10 minutes at 4° C. before aspirating the supernatant completely.\nDebris removal solution was made by adding 1800 μL of Debris Removal Concentrate (Miltenyi Biotec, #130-109-398) to 6200 μL of cold DPBS. The remaining pellet inside the 15 mL tubes was resuspended with 8 mL of Debris Removal Solution. Very slowly, 4 mL of cold DPBS was dispensed on top of the debris removal solution and cell mixture in each 15 mL tube forming a clear layer on top. The 15 mL tubes were centrifuged at 3000×g for 10 minutes at 4° C. with slow acceleration and deceleration. The top clear and middle debris layers were aspirated leaving the milky mixture beneath the debris layer untouched. 6 mL of DPBS was added onto the milky mixture and mixed gently before centrifuging at 300×g for 5 minutes at 4° C. All supernatant was aspirated afterwards.\nRed Blood Cell Remover Solution was made by mixing 125 μL of Red Blood Cell Lysis Solution 10× (Miltenyi Biotec, #130-094-183) with 1125 μL of H2O. The remaining pellet was resuspended in 1.25 mL of Red Blood Cell Remover Solution and incubated for 10 minutes at 4° C. before the addition of 12 mL of 0.5% bovine serum albumin (BSA, Miltenyi Biotec, #130-091-376) diluted in DPBS. The mixture was centrifuged at 300×g for 5 minutes at 4° C. with the supernatant aspirated completely afterwards. The remaining pellet was resuspended in 80 μL of 0.5% BSA and 20 μL of Non-Neuronal Cells Biotin-Antibody Cocktail (Miltenyi Biotec, #130-115-389) and incubated for 5 minutes at 4° C. Cells were washed by adding 2 mL of 0.5% BSA followed by centrifugation at 300×g for 5 minutes at 4° C. followed by aspiration of the supernatant. The remaining pellet was resuspended in 80 μL of 0.5% BSA and 20 μL of Anti-Biotin MicroBeads (Miltenyi Biotec, #130-115-389) and incubated for 10 minutes at 4° C.\nAfter the addition of 6 mL 0.5% BSA, the mixture was flowed through 0.5% BSA primed LS columns (Miltenyi Biotec, #130-042-401). The negative fraction containing the majority of neurons was collected and centrifuged at 300×g for 5 minutes at 4° C. and resuspended in neuron media. […]", "key": {"[1]": {"details": "5 μM (S)-H-1152 vs Vehicle (0.05% DMSO), young adult male mice, 2DIV, 10,000 cells plated per well, two-way ANOVA"}, "[2]": {"details": "young adult male mice, 2DIV, relative to 0% DMSO"}, "[3]": {"details": "young adult male mice, 2DIV, PDL coated wells, laminin coating 10 μg/mL"}}, "data": [{"compound": "CC(=O)O[C@H]1C(=O)[C@]2(C)[C@H](O)C[C@H]3OC[C@@]3(OC(C)=O)[C@H]2[C@H](OC(=O)c2ccccc2)[C@]2(O)C[C@H](OC(=O)[C@H](O)[C@@H](NC(=O)c3ccccc3)c3ccccc3)C(C)=C1C2(C)C", "note": "[7-epi Paclitaxel]", "values": [{"measurement": "average neurite length vs Vehicle", "setting": "middle-aged male cohort", "value": "significantly increased"}, {"measurement": "number of valid neurons vs Vehicle", "setting": "middle-aged male cohort", "value": "without affecting"}, {"measurement": "total neurite outgrowth vs Vehicle", "setting": "middle-aged male cohort", "value": "without affecting"}, {"measurement": "average neurite length vs Vehicle", "setting": "young adult female cohort", "value": "significantly increased"}, {"measurement": "number of valid neurons vs Vehicle", "setting": "young adult female cohort", "value": "significantly decreased"}, {"measurement": "total neurite outgrowth vs Vehicle", "setting": "young adult female cohort", "value": "significantly decreased"}, {"measurement": "average neurite length vs Vehicle", "setting": "young adult male cohort", "value": "significantly increased"}, {"measurement": "number of valid neurons vs Vehicle", "setting": "young adult male cohort", "value": "significantly decreased"}, {"measurement": "total neurite outgrowth vs Vehicle", "setting": "young adult male cohort", "value": "significantly decreased"}, {"measurement": "overall screening result", "setting": "middle-aged male neurons", "value": "overall positive result"}, {"measurement": "overall screening result", "setting": "young adult neurons", "value": "overall negative result"}]}, {"compound": "Cc1cncc2cccc(S(=O)(=O)N3CCCNC[C@@H]3C)c12", "note": "[(S)-H-1152]", "values": [{"measurement": "average neurite length", "setting": "[1]", "value": "significantly increased"}, {"measurement": "number of valid neurons", "setting": "[1]", "value": "significantly increased"}, {"measurement": "slope of the total neurite outgrowth linear regression line against cell plating density", "setting": "5 μM (S)-H-1152 vs Vehicle, young adult male mice, 2DIV, 1,500-15,000 cells per well", "value": "steeper increase"}]}, {"compound": "C[S+](C)[O-]", "note": "[DMSO, Dimethyl sulfoxide]", "values": [{"measurement": "correlation between average neurite length and % DMSO in the media (linear regression)", "setting": "[2]", "value": "significant negative correlation"}, {"measurement": "correlation between number of valid neurons per well and % DMSO in the media (linear regression)", "setting": "[2]", "value": "significant negative correlation"}, {"measurement": "correlation between total neurite outgrowth and % DMSO in the media (linear regression)", "setting": "[2]", "value": "significant negative correlation"}]}, {"compound": "laminin", "values": [{"measurement": "average neurite length, change relative to the control group (no B27+ supplement or laminin coating)", "setting": "[3]", "value": "did not induce a significant changes"}, {"measurement": "number of valid neurons, change relative to the control group (no B27+ supplement or laminin coating)", "setting": "[3]", "value": "did not induce a significant changes"}, {"measurement": "total neurite outgrowth, change relative to the control group (no B27+ supplement or laminin coating)", "setting": "[3]", "value": "did not induce a significant changes"}]}]}
